The data set is described as follows: Stability of monatin in lemon lime matrix under ultraviolet light, Atlas sun-test chamber (Example 2). The settings on record: for monatin sample degraded: four days equivalent of ultraviolet light exposure (24 hours in UV chamber). Format: physicochemical. As to the method: High-potency sweetener monatin was evaluated for stability to sunlight exposure when formulated into a beverage packaged in PET packaging (bottle) with and without a UV barrier or in a dark-colored PET packaging. This study was designed to evaluate the stability of RR stereoisomer of monatin under normal visible light and under ultraviolet light in the Atlas sun-test chamber using normal PET bottles, PET packaging with a UV barrier and dark PET packaging. For this purpose monatin solution was made in a lemon lime carbonated beverage matrix without any flavor added.
The RR isomer of monatin was used for the present study after satisfactory HPLC and LC-MS data analyses confirmed that this sample greater than 95% pure. A lemon lime beverage matrix without flavor was used as the matrix base. The concentration of monatin in the matrix was 30 ppm.
Due to lack of any RR-monatin standard, its stereoisomer, SS-monatin was used for HPLC calibration curve preparation as it appears at the same retention time as RR-monatin.
Quantitative analysis of monatin via UV detection in LC-MS was done for all the samples. The methodology employed a 12% acetonitrile (solvent A) in 50 mM ammonium formate (pH 4.0, solvent B) for 5 min followed by a linear gradient to 34% acetonitrile over 5 min; Detection: UV @278 nm].
1) regular PET bottles, 300 mL or 8 Oz (bottle type A). 2) PET bottles with a UV barrier, 600 mL or 16 Oz, fresh un-used bottle* (bottle type B). * It was shown that the UV barrier capacity decreased after one use in the commercially bought 20 Oz PET bottles with a UV barrier (See the UV scan data in FIG. 1). 3) dark-colored PET bottles (bottle type C). UV light source: Atlas Sun-test chamber. Under program 1 of sun-test chamber, 6 hr of exposure is equal to one day of sun-light exposure in Arizona or 400 Langley at 40° C. Control Experiment: UV irradiation by using only a lemon lime matrix (no monatin added) in regular PET bottles and running the sun-test chamber for four days equivalent exposure was carried out. The purpose of this experiment was to make sure no artifact arises from lemon lime matrix in the monatin absorption region. No new signals were identified. 13 bottles were used in the monatin-lemon-lime matrix experiments: 1 regular PET at zero time and 3 regular PET bottles; 2 PET bottles with a UV barrier bottles and 7 dark-colored PET bottles. Zero time sample protocol: 330 mL PET bottle was filled up to ⅓^rd full, flushed with nitrogen, covered with foil and then kept at 4° C. Sample aliquot protocol: 5 mL was taken out in a 20 mL opaque glass scintillation vial. Both vial and experimental bottle were flushed with nitrogen. The vial was covered with foil and kept at 4° C.
LC-MS analysis was carried out on all the samples in the same day as their maturation. A new monatin calibration curve was made every day with the SS-monatin sample.
For these experiments samples were kept in the Atlas sun-test chamber where each 6 hr exposure was equivalent to one day of sun exposure in Arizona (400 Langley). […] In particular, it was noted that under UV light in regular PET, monatin degrades by 70% in just one day's exposure.

[1] abbreviates: 0 hours of exposure in UV chamber.
[2] abbreviates: 6 hours of exposure in UV chamber.
Where [3] appears, read: 12 hours of exposure in UV chamber.
The mark [4] stands for this setting: 18 hours of exposure in UV chamber.
[5] abbreviates: 24 hours of exposure in UV chamber.

With `NC(CC(O)(Cc1c[nH]c2ccccc12)C(=O)O)C(=O)O` (stereo not shown) [Monatin, 2-amino-4-carboxy-4-hydroxy-5-(3-indolyl)-pentanoic acid], the “Conc. in mg/L RR-Monatin in Lemon Lime matrix in Normal PET Bottle (330 mL)” value (“Conc. in mg/L RR-Monatin … (330 mL)” for short) under setting [1] came to 31.1 mg/L; the “Conc. in mg/L RR-Monatin … (330 mL)” value under setting [2] came out at 9.0 mg/L; the “Conc. in mg/L RR-Monatin … (330 mL)” value under setting [3] is recorded as 2.1 mg/L; the “Conc. in mg/L RR-Monatin … (330 mL)” value under setting [4] worked out at 0.3 mg/L; the “Conc. in mg/L RR-Monatin … (330 mL)” value under setting [5] is given as 0.0 mg/L. Besides, the “Conc. in mg/L RR-Monatin in Lemon Lime matrix in UV barrier PET Bottle (600 mL)” value by setting is: under setting [1], 31.1 mg/L; under setting [2], 27.6 mg/L; under setting [3], 22.4 mg/L; under setting [4], 9.8 mg/L; under setting [5], 3.6 mg/L. The “Conc. in mg/L RR-Monatin in Lemon Lime matrix in dark-colored PET Bottle (75 mL)” value runs as follows: under setting [1], 31.1 mg/L; under setting [2], 29.2 mg/L; under setting [3], 29.1 mg/L; under setting [4], 29.0 mg/L; under setting [5], 28.6 mg/L. Also, the “degradation upon exposure to UV light” value runs as follows: (Regular PET bottles and PET with UV barrier bottles) “did not prevent degradation of monatin”; (monatin solution in dark-colored PET bottles) “prevented most of the monatin from degrading”. Besides, the monatin sample degraded reads like this: (UV barrier PET bottle) approximately 90%; (dark-colored PET bottle) “less than 10%”; (normal PET bottle) “all of the monatin sample in the normal PET bottle had degraded”. Besides, where the note is “UV light, regular PET, one day's exposure”, the monatin degrades is reported as 70%. For the same molecule, the “degradation, UV light versus visible light” value (lemon-lime matrix) is given as “degrade faster upon UV light exposure than upon visible light exposure”.

Source of the values: US20120282377A1, “Methods and Formulations for Inhibiting Degradation of Photosensitive Sweeteners and Sweetener Enhancers” (priority 2011, published 2012).
